The test system of assay [1] is B7-H1 surface expression in Hepa1-6 cells (Nox4 inhibition). The assay can be described thus: B7-H1 surface expression in Hepa1-6 cells by FACS. It counts as cell-based, murine. To be noted: 10 μM, 24 h, no further treatment, FIG. 8A. The method, then: FIG. 8: Inhibition of Nox4 enhances B7-H1 expression. Hepa1-6 cells were treated with the Nox4-specific inhibitor GKT137831 [10 μM] for 24 h. Afterwards, cells were harvested and B7-H1 expression was determined by FACS analysis. A quantification of five independent experiments is provided in (A). In liver homogenates of global NOX4 knockout mice B7-H1 protein expression was examined by Western blotting (B). A representative blot is shown. A quantification of B7-H1 expression (WT vs. NOX4-KO; n=5/5; *p<0.5) is provided in (C). B7-H1 expression on hepatocytes following polymicrobial sepsis initiation by cecal ligation and puncture (CLP) was studied in liver single cell suspensions by FACS-analysis gating for CD45-, i.e. non-immune cells as described in Materials and Methods. A quantification is shown (D), (sham vs. CLP, WT sham is set as 1; n=5/5/5/5; *p<0.5). Liver damage in global NOX4 knockout mice following CLP operation is assessed by looking at ALT/AST release into the serum, which is determined with a Reflotron Plus […] analyzer (E) (NOX4-KO; sham vs. CLP; n=5/5, *p<0.5). […]
All antibodies and secondary reagents were titrated to optimal concentrations. […] Surface expression of B7-H1 and B7-DC on the surface of primary hepatocytes was determined by FACS analysis, using anti-B7-H-PE or anti-B7-DC-PE. […]
A general note: In flow cytometry, cells or beads pass a laser one at a time.

Assay [2] deals with B7-H1 expression in Hepa1-6 cells. The assay can be described thus: B7-H1 mRNA (qPCR) and protein (Western) expression in Hepa1-6 cells. The assay is classed as cell-based, murine. To be noted: 100 ng/ml LPS with 10 mM NAC, FIG. 7 vs FIG. 3B. The method, then: FIG. 3: B7-H1 expression in Hepa1-6 cells following LPS or LTA stimulation. Hepa1-6 cells were stimulated for the indicated times with 100 ng/ml LPS or 100 ng/ml LTA. Afterwards cells were harvested and mRNA was isolated or protein lysates were prepared as described in Materials and Methods. mRNA expression of B7-H1 (A) was analyzed by quantitative PCR. 18s rRNA was used as a house keeping gene. (B) B7-H1 protein expression following LPS stimulation was determined by Western analysis. All experiments were performed at least five times. Data represent the mean±SD (*p<0.5) or show a representative blot.
FIG. 7: B7-H1 expression was restored adding the GSH precursor N-acetyl-cysteine (NAC). Hepa1-6 cells were stimulated for the indicated times with 100 ng/ml LPS with 10 mM NAC. Afterwards cells were harvested and protein lysates were prepared as described in Materials and Methods. B7-H1 protein expression was determined by Western analysis. All experiments were performed at least five times. […]
LPS and LTA act via different Toll-like receptors (TLRs) on target cells i.e. TLR2 for LTA and TLR4 for LPS. […] To investigate whether a ROS-dependent mechanism was responsible for the reduction of B7-H1, ROS formation was determined in Hepa 1-6 cells treated with LPS alone or in combination with N-acetylcysteine (NAC). […]
B7-H1, B7-DC, PD-1, Fas and EGFP expression were analyzed by Western analysis. […]
In general terms: Real-time PCR tracks product formation cycle by cycle.

As for `CN(C)c1cccc(-c2c3c(=O)n(-c4ccccc4Cl)[nH]c3cc(=O)n2C)c1` [GKT137S31], the “increase of B7-H1 surface expression” value in assay [1] is recorded as “roughly 50%”.
Take `CC(=O)N[C@@H](CS)C(=O)O` [NAC, N-acetylcysteine]: the B7-H1 protein expression result in assay [2] is given as “restored expression of B7-H1”.

Source of the values: patent US10632174B2, “B7-H1 fusion polypeptides for treating and preventing organ failure” (Fraunhofer-Gesellschaft zur Förderung der angewandten …, priority 2015, dated 2020).
